Values after ≈ are worked out from the molar mass of the structure shown. Like-named read-outs stand apart in the source and are kept apart here.
How the values were obtained:
[1] = Cytotoxicity, viability by Trypan blue exclusion; format: cell-based; conditions: human, NB4; four days; read-out: Cytotoxicity (IC50, ng/ml)
From the text: (§1) All cells were routinely tested for mycoplasma contamination.
(§2) Cellular viability was monitored by Trypan blue exclusion.

DHL-6 = experiment: Cytotoxicity, viability by Trypan blue exclusion; format: cell-based; conditions: for Cytotoxicity (IC50, ng/ml): DHL-6, four days
From the text: as §1, §2

Daudi = experiment: Cytotoxicity, viability by Trypan blue exclusion; format: cell-based; conditions: for Cytotoxicity (IC50, ng/ml): Daudi, four days
From the text: as §1, §2

NB4 = experiment: Cytotoxicity, viability by Trypan blue exclusion; format: cell-based
From the text: as §1, §2

HL-60 [2] = experiment: Cell cycle effects, DNA content by flow cytometry; format: cell-based, human; conditions: Brusatol (25 ng/ml), 24 h
Description: About 10^6 cells from each sample were collected and washed twice with ice-cold PBS, fixed in 70% ethanol, and stored at 4° C. until analysis. The cells were stained with PI (50 μg/ml), treated with DNase-free RNase (10 μg/ml), and subjected to DNA content analysis using an EPICS Coulter flow cytometer. At least 10,000 cells were counted for each sample. The percentage of apoptotic cells was calculated by measuring the area under the sub-diploid (DNA <2 N) peak in the plot of cell number against cellular DNA content.
Cells were treated with solvent or brusatol (25 ng/ml) for 24 h, fixed in ethanol and stained with PI for flow cytometric analysis as described under “Materials and methods”. At least 10,000 cells were counted. Results are presented as the mean of triplicate samples (±standard deviation). G1=Gap1, S=Synthesis, G2/M=Gap2+Mitosis, Ap=sub-G1 apoptotic peak.

BV173 [3] = experiment: Membrane phenotype, cell surface antigen by flow cytometry; format: cell-based; conditions: 4-day protocol
Description: (§3) Cell lines were tested using a 4-day incubation protocol, unless otherwise specified.
(§4) 3) Determination of cell surface antigen by flow cytometry. Cells (10^6) were washed with PBS and then incubated for 30 min at room temperature with respective monoclonal antibodies, washed with 20 volumes of diluent (PBS with 0.1% sodium azide and 1% BSA), and resuspended in 0.5 ml of fresh diluent for evaluation. Necrotic cells were excluded from the analysis by propidium iodide (PI) staining. The following mAbs (Sigma, St. Louis, Mo.) were used to assess the maturation level of myeloid cell lines: antiCD15 (Leu M1), antiCD-11b (OKM1), antiCD14 and antiCD13. The following mAbs (Sigma, St. Louis, Mo.) were used to assess the maturation level of lymphocytic cell lines: antiCD20, antiHLA-DR and antikappa light chain.
(§5) Cells were induced to differentiate with the indicated concentrations of brusatol using a 4-day protocol and then analyzed for membrane markers of differentiation as described under “Materials and methods”. Results are expressed as the specific mean fluorescence intensity (ratio of antigen antibody flourescence over isotype antibody fluorescence), and represents the mean of two independent studies.

K562 cells = experiment: as above; format: cell-based; conditions: Brusatol 25 ng/ml, 4-day protocol
Description: as §3, §4, §5

Kasumi-1 = experiment: as above; format: cell-based; conditions: 4-day protocol
Description: as §3, §4, §5

NB4 cells = experiment: as above; format: cell-based; conditions: Brusatol 10 ng/ml, 4-day protocol
Description: as §3, §4, §5

RS4;11 cells = experiment: as above; format: cell-based; conditions: Brusatol 25 ng/ml, 4-day protocol
Description: as §3, §4, §5

U937 cells = experiment: as above; format: cell-based; conditions: Brusatol 12.5 ng/ml, 4-day protocol
Description: as §3, §4, §5

HL-60 [4] = experiment: NBT-reduction differentiation assay, leukemic panel; format: cell-based, human; conditions: 4 days
Description: as §3
2) NBT/NSE/SE. Evaluation of NBT reduction was used to assess the ability of sample-treated cells to produce superoxide when challenged with TPA. A 1:1 (v/v) mixture of a cell suspension (10^6 cells) and TPA/NBT solution (2 mg/ml NBT and 1 μg/ml TPA in phosphate buffer saline (PBS)) was incubated for 1 h at 37° C. Then, cells were smeared on glass slides, and counterstained with 0.3% (w/v) safranin O in methanol. Positive cells reduce NBT yielding intracellular black-blue formazan deposits. NSE/SE are monocytic/granulocytic esterases that can be visualized by cytochemical staining using commercially available kits (α-Naphthyl Acetate Esterase and Naphthol As-D Chloroacetate Esterase kits, Sigma Chemical Co., St. Louis, Mo.). Positive-stained cells were quantified by microscopic examination of >200 cells. Results were expressed as a percentage of positive cells.
Concentration-dependent effect of brusatol on: (a) NBT-reduction (monocyte/granulocyte marker) of HL-60, K562, NB4, U937, and BV173 and (b) NSE expression (monocyte marker) in K562, Kasumi-1, NB4, and BV173 cells, respectively. Data points are the mean of duplicate samples.

JB6 cells = conditions: dose-dependent manner; cited from earlier work
[5] = Cytotoxicity, viability by Trypan blue exclusion; conditions: human, HL-60 cells, Cytotoxicity (IC50, ng/ml), four days
Description: (§6) HL-60, K562, U937, Reh and Daudi cells were obtained from the American Type Culture Collection (Rockville, Md.). Kasumi-1, NB4, BV173, SUPB13, and RS4;11 cells were provided by the Section of Hematology/Oncology, University of Illinois College of Medicine, Chicago, Ill. All cell lines were maintained in suspension culture using RPMI 1640 medium supplemented with 10% heat-inactivated fetal bovine serum, 100 units of penicillin/ml and 100 μg of streptomycin/ml at 37° C. in a humidified atmosphere of 5% CO2 in air. All cells were routinely tested for mycoplasma contamination.
(§7) Cellular viability was monitored by Trypan blue exclusion. Inhibition of [3H]thymidine incorporation into DNA was determined to assess the level of cell proliferation as well as DNA synthesis inhibition. […] The filters were counted using a Microbeta™ liquid scintillation counter (Wallac, Turku, Finland) with scintillation fluid. Finally, the percentage of [3H]thymidine incorporation per 10^6 cells was calculated by dividing the dpm of sample-treated cells by the dpm of DMSO-treated cells.
(§8) ^aViability was determined by Trypan blue exclusion in duplicate samples. […] Results are expressed as median inhibitory cell concentrations of two independent experiments (±standard deviations).

HL-60 [6] = experiment: Cytotoxicity, viability by Trypan blue exclusion; conditions: four days
Description: as §6, §7, §8

[7] = Cytotoxicity, viability by Trypan blue exclusion; conditions: human, U937 cells, Cytotoxicity (IC50, ng/ml), four days
Description: as §6, §7, §8

U937 = experiment: Cytotoxicity, viability by Trypan blue exclusion; conditions: four days
Description: as §6, §7, §8

BV173 [8] = experiment: Cytotoxicity, viability by Trypan blue exclusion; conditions: four days
Description: as §6, §7, §8

[9] = Cytotoxicity, viability by Trypan blue exclusion; conditions: human
Description: (§9) Human blood (20 ml) was collected in heparinized sterile tubes and white blood cells were separated using Ficoll reagent (8 ml/5 ml blood diluted in 15 ml Hank's buffered solution). After centrifugation at low speed (1500 rpm) for 30 min, the white coat was removed and washed 3-times with Hank's buffered solution. The cell pellet was resuspended in RPMI 1640 medium supplemented with 10% FBS. This preparation contained >90% lymphocytes and <5% monocytes, as determined by Wright-Giemsa staining.
as §8

in vitro = conditions: human
Description: as §9, §8

**Q.** Which IC50 at 4 days [1] does the source give for `COC(=O)[C@@]12OC[C@]34[C@H]([C@@H](O)[C@@H]1O)[C@@]1(C)CC(=O)C(O)=C(C)[C@@H]1C[C@H]3OC(=O)[C@H](OC(=O)C=C(C)C)[C@@H]24` [compound 1, brusatol] here?
**A.** The IC50 at 4 days was less than 25 ng/mL.

**Q.** And the “Cytotoxicity (IC50, ng/ml)” value (DHL-6; listed as Brusatol)?
**A.** Its value is 5 ± 0.5 ng/mL.

**Q.** What about the “Cytotoxicity (IC50, ng/ml)” value (DHL-6; listed as brusatol) of the same molecule?
**A.** The value was “less than 25 ng/ml”.

**Q.** What about the cytotoxicity (DHL-6; human, 48 h, 25 ng/ml) of the same molecule?
**A.** Its cytotoxicity is 100%.

**Q.** What about the “Cytotoxicity (IC50, ng/ml)” value (Daudi; listed as Brusatol) of the same molecule?
**A.** Its value is 5 ± 0.3 ng/mL.

**Q.** What about the “Cytotoxicity (IC50, ng/ml)” value (Daudi; listed as brusatol) of the same molecule?
**A.** Its value is “less than 25 ng/ml”.

**Q.** What about the cytotoxicity (Daudi; human, 48 h, 25 ng/ml) of the same molecule?
**A.** Its cytotoxicity is 100%.

**Q.** And the “Cytotoxicity (IC50, ng/ml)” value (NB4; NB4, four days)?
**A.** Its value is 15 ± 0.2 ng/mL.

**Q.** What about the cytotoxicity (NB4; human, 48 h, 25 ng/ml) of the same molecule?
**A.** Its cytotoxicity is 100%.

**Q.** And the G1 (HL-60 [2])?
**A.** The G1 was “G1 = 68.7 ± 0.9”.

**Q.** What about the G2/M (HL-60 [2]) of the same molecule?
**A.** Its G2/M is “G2/M = 18.3 ± 1.1”.

**Q.** And the S (HL-60 [2])?
**A.** The S was “S = 13.0 ± 1.0”.

**Q.** And the “membrane markers of differentiation, change between control and treated cells” value (BV173 [3])?
**A.** The value was “did not show any changes”.

**Q.** What about the “CD11b, specific mean fluorescence intensity” value (K562 cells) of the same molecule?
**A.** The value was 1.0 ± 0.1.

**Q.** And the “CD13, specific mean fluorescence intensity” value (K562 cells)?
**A.** Its value is 1.4 ± 0.2.

**Q.** And the “CD14, specific mean fluorescence intensity” value (K562 cells)?
**A.** Its value is 1.0.

**Q.** What about the “CD15, specific mean fluorescence intensity” value (K562 cells) of the same molecule?
**A.** The value was 4.6 ± 1.1.

**Q.** And the “membrane markers of differentiation, change between control and treated cells” value (Kasumi-1)?
**A.** Its value is “did not show any changes”.

**Q.** And the “CD11b, specific mean fluorescence intensity” value (NB4 cells)?
**A.** The value was 1.2 ± 0.5.

**Q.** What about the “CD13, specific mean fluorescence intensity” value (NB4 cells) of the same molecule?
**A.** The value was 156.1 ± 54.3.

**Q.** What about the “CD14, specific mean fluorescence intensity” value (NB4 cells) of the same molecule?
**A.** The value was 1.3.

**Q.** What about the “CD15, specific mean fluorescence intensity” value (NB4 cells) of the same molecule?
**A.** Its value is 18.5 ± 0.4.

**Q.** What about the “CD11b, specific mean fluorescence intensity” value (RS4;11 cells) of the same molecule?
**A.** The value was 1.2 ± 0.1.

**Q.** What about the “CD13, specific mean fluorescence intensity” value (RS4;11 cells) of the same molecule?
**A.** Its value is 1.3 ± 0.2.

**Q.** And the “CD15, specific mean fluorescence intensity” value (RS4;11 cells)?
**A.** Its value is 151.9 ± 42.1.

**Q.** What about the “CD11b, specific mean fluorescence intensity” value (U937 cells) of the same molecule?
**A.** Its value is 2.5 ± 0.2.

**Q.** And the “CD13, specific mean fluorescence intensity” value (U937 cells)?
**A.** Its value is 55.7 ± 1.1.

**Q.** And the “CD14, specific mean fluorescence intensity” value (U937 cells)?
**A.** Its value is 9.6.

**Q.** And the “CD15, specific mean fluorescence intensity” value (U937 cells)?
**A.** Its value is 28.5 ± 4.3.

**Q.** And the “NBT-reduction, peak induction” value (HL-60 [4])?
**A.** Its value is 75%.

**Q.** And the “TPA-induced anchorage-independent growth of JB6 cells” value (JB6 cells)?
**A.** Its value is “inhibits”.

**Q.** And the IC50 at 4 days [5]?
**A.** Its IC50 at 4 days is 0.05 to 0.1 µg/mL (≈ 0.0961 to 0.192 µM).

**Q.** And the “Cytotoxicity (IC50, ng/ml)” value (HL-60 [6])?
**A.** The value was 50 ± 0.9 ng/mL.

**Q.** What about the IC50 at 4 days [7] of the same molecule?
**A.** Its IC50 at 4 days is less than 0.025 µg/mL.

**Q.** And the “Cytotoxicity (IC50, ng/ml)” value (U937)?
**A.** The value was 12.5 ± 1.1 ng/mL.

**Q.** What about the “Cytotoxicity (IC50, ng/ml)” value (BV173 [8]; listed as Brusatol) of the same molecule?
**A.** Its value is 5 ± 1.4 ng/mL.

**Q.** And the “Cytotoxicity (IC50, ng/ml)” value (BV173 [8]; listed as brusatol)?
**A.** Its value is “less than 25 ng/ml”.

**Q.** What about the viability at 3 days, 100 ng/ml ([9]; peripheral blood lymphocytes stimulated with concanavalin A) of the same molecule?
**A.** Its viability at 3 days, 100 ng/ml is roughly 90%.

**Q.** And the IC50 at 3 days ([9]; peripheral human lymphocytes)?
**A.** The IC50 at 3 days was greater than 0.1 µg/mL.

**Q.** For `COC(=O)[C@@]12OC[C@]34[C@H]([C@@H](O)[C@@H]1O)[C@@]1(C)CC(=O)C(O)=C(C)[C@@H]1C[C@H]3OC(=O)[C@H](OC(=O)/C=C(\C)C(C)C)[C@@H]24` [compound 2, bruceantin], which IC50 at 3 days (in vitro) is on record?
**A.** The IC50 at 3 days was greater than 0.05 µg/mL.

— patent US20020193425A1, “Cancer chemopreventative compounds and compositions and methods of treating cancers” (priority 2001, published 2002)
